In US7189851B2, “Condensed heterocyclic compounds as calcitonin agonists” (SmithKline Beecham Corporation, priority 2002, dated 2007):

Experiments:
[1] = target: T1, human calcitonin-2 receptor (hCT2R) (Homo sapiens, UniProt P30988); assay: HCT2R CRE-luc reporter assay; assay type: cell-based; settings: agonist activity; CHO-6CRE-luciferase cells co-transfected with hCT2R
T1 construct: expressed in transfected cells; host or cells: Chinese hamster ovary (CHO) cells co-transfected with a 6CRE-luciferase reporter; receptor cDNA cloned from the MCF7 cell line
T1 sequence (P30988 25-474): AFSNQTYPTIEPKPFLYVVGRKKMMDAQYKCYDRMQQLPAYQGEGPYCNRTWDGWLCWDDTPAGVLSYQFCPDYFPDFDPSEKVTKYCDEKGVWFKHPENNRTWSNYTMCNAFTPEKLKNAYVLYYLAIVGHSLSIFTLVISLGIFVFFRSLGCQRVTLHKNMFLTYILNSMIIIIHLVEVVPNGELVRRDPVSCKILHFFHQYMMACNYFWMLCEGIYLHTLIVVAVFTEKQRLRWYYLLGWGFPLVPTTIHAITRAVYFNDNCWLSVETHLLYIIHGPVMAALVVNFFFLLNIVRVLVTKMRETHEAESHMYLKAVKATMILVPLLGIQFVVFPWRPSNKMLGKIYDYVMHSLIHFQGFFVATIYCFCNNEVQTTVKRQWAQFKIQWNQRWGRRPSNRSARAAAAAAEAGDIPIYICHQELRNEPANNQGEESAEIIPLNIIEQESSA

[2] = system: Thyroid-parathyroidectomized (TPTX) rats; assay: Rat TPTX assay in vivo (PTH-induced elevation of serum calcium); parameters: key to TPTX rat in vivo: Active: TPTX (Thyroid- parathyroidectomized) rat: Significant inhibition of bone resorption reflected in serum calcium levels relative to PTH + Vehicle controls; settings: serum calcium, PTH-infused TPTX rats, vs PTH + Vehicle
Source text: Thyroid-parathyroidectomized (TPTX) rats were used to determine the effects of compounds on PTH-induced elevation of serum calcium in vivo. The thyroid and parathyroid glands of male CD rats were removed under anesthesia and subcutaneous pumps containing human parathyroid hormone (hPTH 1–34) were implanted two to five days after TPTX. […] PTH was delivered at a rate of 30 micrograms/kg/hour. PTH causes significant elevations of serum calcium in TPTX rats given no other treatments. Rats were treated with vehicle, test compounds at various doses or calcitonin 16 units/kg SC. […] Serurn calcium was measured at baseline and every two hours up to six hours. Averaged group responses at each time point were compared using Analysis of Variance (ANOVA).

neonatal rat calvaria = assay: Rat calvaria assay in vitro (bone resorption); assay type: cell-based; parameters: key: Active: Rat calvaria: Concentration-dependent inhibition of bone resorption with efficacy equivalent to calcitonin 1 ng/ml; settings: PTH 10 ng/ml stimulated bone resorption; calcium and deoxypyridinoline in supernatant
Description: Bone resorption of neonatal rat cavarial chips was measured using methods adapted from published protocols [Ulf H, Lemer Modifications of the Mouse Calvarial Technique Improve the Responsiveness to Stimulators of Bone Resorption. Journal of Bone and Mineral Research Vol 2, No. 5, 1987]. Resorption was measured by quantification of calcium in the supernatant by a calorimetric assay and of deoxypyridinoline in the supernatant by ELISA. Deoxypyridinoline is released as a by product of collagen degradation by the osteoclast
Calvaria were surgically removed from 2–3 day old Wistar rats and placed in a sterile tube containing BGJb media (Fitton-Jackson Modification)—GIBCO BRL with penicillin (10 U/ml)/streptomycin (10 μg/ml). Calvaria were washed twice with fresh media, trimmed of excess tissue, and placed in fresh media. Calvaria were uniformly sectioned and placed in the wells of a tissue culture plate in 1 ml of BGJb/P/S with 1 mg/ml BSA. Calvaria were incubated for 24 hours at 37° C., 5% CO2 before treatments. Media was aspirated and replaced with 1 ml of fresh media containing PTH 10 ng/ml . Unstimulated wells contained media alone. Test compounds or calcitonin (1 ng/ml) were added. Compounds or calcitonin were added again on days 2 and 3, with no medium or PTH additions. Upon completion of the assay, the media was collected and stored at −20° C. until analysis was performed. Calvaria were air-dried for several days, and dry weight was quantified.
Deoxypyridinoline ELISA: Supernatants were evaluated for deoxypyridinoline crosslinks according to kit manufacturer instructions. SoftMax software was used to evaluate ELISA data from a 96-well format to generate a standard curve. Sample values were extrapolated from this standard curve. Extrapolated sample values were imported into a Microsoft Excel to normalize sample values to dried calvarial weight. Data was expressed as nanomolar DPD/mg calvaria.
Calcium analysis: Calcium determinations were made using Arsenazo III reagent from Sigma Diagnostics No. 588. Procedure followed as described by manufacturer in kit instructions. Data was imported from plate reader into Microsoft® Excel® and calcium concentrations were calculated as follows: [Asample/Astandard]×Concentration of standard=mg/dL Calcium
Sample values were normalized to dried calvarial weight and expressed as mg/dL calcium per mg calvaria.

Human osteoclasts = assay: Human osteoclast assay in vitro (bone resorption); assay type: cell-based; parameters: key: Active: Human osteoclast: Significant inhibition of bone resorption in the absence of toxicity, relative to vehicle-treated controls; settings: inhibition of bone resorption on cortical bone slices, 3 to 7 days
Description: Human osteoclasts were differentiated from peripheral blood cells using methods adapted from published protocols [Journal of Experimental Medicine 188(5):997–1001, 1998. TRANCE is necessary and sufficient for osteoblast-mediated activation of bone resorption in osteoclasts. K Fuller, B Wong, S Fox, Y Choi, and T J Chambers]. Human mononuclear cells were incubated on bone slices in M_CSF (30 ng/ml) and RANKL (TRANCE, 30 ng/ml) for 10 days. Differentiated osteoclasts were identified using an osteoclast-specific monoclonal antibody. Osteoclasts with test compounds or vehicle were incubated on cortical bone slices for an additional 3 to 7 days to measure bone resorption. In addition to bone resorption, toxicity and osteoclastogenesis were observed after compound treatments. A positive response was defined as significant inhibition of bone resorption without toxicity.

| SMILES | melting point [°C] | EC50 [1] [nM] | TPTX rat in vivo [2] | Rat calvaria in vitro (neonatal rat calvaria) | Human osteoclast in vitro (Human osteoclasts) |
| --- | --- | --- | --- | --- | --- |
| CCOC(=O)c1c(CCc2ccc(C(F)(F)F)cc2)nc2c(c1-c1ccc(S(=O)(=O)NCc3ccco3)cc1)C(=O)N1CCC[C@@H]21 [Example 2, Ethyl (9aS)-4-(4-{[(2-furylmethyl)amino]sulfonyl}phenyl)-5-oxo-2-{2-[4-(trifluoromethyl)phenyl]ethyl}-7,8,9,9a-tetrahydro-5H-pyrido[2,3-a]pyrrolizine-3-carboxylate] | 181 to 182 | 100 to 1000 |  |  |  |
| CCOC(=O)c1c(CCc2ccc(C(F)(F)F)cc2)nc2c(c1-c1ccc(C(=O)N[C@H](C)c3ccncc3)cc1)C(=O)N1CCC[C@@H]21 [Example 4, Ethyl (9aS)-5-oxo-4-[4-({[(1R)-1-(4-pyridinyl)ethyl]amino}carbonyl)phenyl]-2-{2-[4-(trifluoromethyl)phenyl]ethyl}-7,8,9,9a-tetrahydro-5H-pyrido[2,3-a]pyrrolizine-3-carboxylate] |  | 10 to 100 | Active | Active |  |
| CCOC(=O)c1c(CCc2ccc(C(F)(F)F)cc2)nc2c(c1-c1ccc(C(=O)N[C@@H](C)c3ccncc3)cc1)C(=O)N1CCC[C@@H]21 [Example 5, Ethyl (9aS)-5-oxo-4-[4-({[(1S)-1-(4-pyridinyl)ethyl]amino}carbonyl)phenyl]-2-{2-[4-(trifluoromethyl)phenyl]ethyl}-7,8,9,9a-tetrahydro-5H-pyrido[2,3-α]pyrrolizine-3-carboxylate] | 158 to 160 | 100 to 1000 | Active | Active |  |
| CCOC(=O)c1c(CCc2ccc(C(F)(F)F)cc2)nc2c(c1-c1ccc(NC(=O)Nc3ccccc3)cc1)C(=O)N1CCC[C@@H]21 [Example 7, Ethyl (9aS)-4-{4-[(anilinocarbonyl)amino]phenyl}-5-oxo-2-{2-[4-(trifluoromethyl)phenyl]ethyl}-7,8,9,9a-tetrahydro-5H-pyrido[2,3-α]pyrrolizine-3-carboxylate] | 137 to 139 | 100 to 1000 |  |  |  |
| CCOC(=O)c1c(CCc2ccc(C(F)(F)F)cc2)nc2c(c1-c1ccc(C(=O)NCc3ccco3)cc1)C(=O)N1CCC[C@@H]21 [Example 11, Ethyl(9aS)-4-(4-{[(2-furylmethyl)amino]carbonyl}phenyl)-5-oxo-2-{2-[4-(trifluoromethyl)phenyl]ethyl}-7,8,9,9a-tetrahydro-5H-pyrido[2,3-a]pyrrolizine-3-carboxylate] |  | ≤ 10 |  | Active | Active |
| CCOC(=O)c1c(CCc2ccc(C(F)(F)F)cc2)nc2c(c1-c1ccc(C(=O)NCc3cccnc3)o1)C(=O)N1CCC[C@@H]21 [Example 12, Ethyl(9aS)-5-oxo-4-(5-{[(3-pyridinylmethyl)amino]carbonyl}-2-furyl)-2-{2-[4-(trifluoromethyl)phenyl]ethyl}-7,8,9,9a-tetrahydro-5H-pyrido[2,3-a]pyrrolyzine-3-carboxylate] |  | 10 to 100 | Active | Active | Active |
| CCOC(=O)c1c(CCc2ccc(F)cc2)nc2c(c1-c1cc(C(=O)NCc3ccc(F)c(F)c3)cs1)C(=O)N1CCC[C@@H]21 [Example 16, Ethyl(9aS)-4-(4-{[(3,4-difluorobenzyl)amino]carbonyl}-2-thienyl)-2-[2-(4-fluorophenyl)ethyl]-5-oxo-7,8,9,9a-tetrahydro-5H-pyrido[2,3-a]pyrrolizine-3-carboxylate] |  | ≤ 10 | Active | Active |  |
| CCOC(=O)c1c(CCc2ccc(OC)cc2)nc2c(c1-c1ccc(C(=O)NCc3ccccn3)cc1)C(=O)N1CCC[C@H]1C2 [Example 57, Ethyl (9aS)-2-[2-(4-methoxyphenyl)ethyl]-5-oxo-4-(4-{[(2-pyridinylmethyl)amino]carbonyl}phenyl)-5,7,8,9,9a,10-hexahydropyrrolo[1,2-g][1,6]naphthyridine-3-carboxylate] | > 200 | ≥ 1000 |  |  |  |
